Reference: US8263649B2, “Benzofuran type derivatives, a composition comprising the same for treating or preventing cognitive dysfunction and the use thereof” (Medifron DBT Co., Ltd., priority 2006, dated 2012)

Experiments:
[1] = target: T1, beta amyloid 1-42 (Homo sapiens, UniProt P05067); assay: Inhibition test of beta amyloid aggregation (Thioflavin T fluorescence); type: biochemical; conditions: FIG. 1
T1 construct: Synthetic beta amyloid 1-42 (BACHEM); purchased BACHEM; host or cells: synthetic peptide
T1 sequence (P05067 672-713): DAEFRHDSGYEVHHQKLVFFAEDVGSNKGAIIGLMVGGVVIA
Protocol: Synthetic beta amyloid 1-42 (BACHEM) was dissolved in DMSO in order to 250 μm solution and diluted with PBS into 1/10 on fluorescent black plate to induce aggregation. By comparing with inhibition activity of the tanshinone compounds prepared in Example 1 on beta amyloid aggregation, the test sample showing more than 50% inhibition activity at 10 μg/ml was chosen to use and added to react for 1 hour at room temperature. ThT (Thioflavin T) was diluted with 50 mM glycine buffer solution and the diluted solution was added to each well by 150 μl/well. The absorbance was determined by microplate reader (SAFIRE, TECAN) at 450 nm excitation wavelength/480 nm emission wavelength and the inhibition activity of the test sample on beta amyloid aggregation was transformed into IC50.

[2] = test system: A 40; assay: ELISA of beta-amyloid in brain of transgenic mice (A 40); type: in vivo, mouse; conditions: APPswe mice treated for 4 months; no significance statistically; FIG. 13
Protocol: 13 months old dementia model male mice expressing APPswe was used in the experiment and the mice was divided into two groups, i.e., control group consisting of 2 mice and test groups consisting of 4 mice. Each mouse had been fed with the feed mixed with 3 mg of compound IIb everyday for 4 months.
At the end of behavior test, the brain of mouse was delivered and the left hemisphere was frozen to be used as a cryo-section material. The remaining right hemisphere was used to measure the formation of beta-amyloid according to the procedure disclosed in the literature (J. Neurosci, 21(12), pp 4183-4187, 2001). […]
The amount of beta-amyloid in the brains of mice was determined by […] ELISA method according to the manual provided from Biosource Co and ELISA kit (KHB 3482, Biosource Co.) was used in the experiment. […] The level of color reaction was determined at 450 nm using by spectrophotometer and the absolute amount of beta-amyloid in the samples was transformed by comparing with standard value. The brain of the mice treated with the compound 18b for 4 months was delivered and the amount of beta-amyloid in supernatant obtained from the dissolved brain tissue was determined according to ELISA method.

[3] = test system: ICR mouse administrated aggregated beta amyloid 1-42; assay: AD acute model experiment - Y maze test; type: in vivo
Protocol: (§1) For passive avoidance test, male ICR mouse weighing 25 g purchased from Samtaco Co. was bred with five mice per cage and the cage was kept with following condition maintaining the temperature of 22±2° C. and the relative humidity of […] under the regularly controlled light/dark condition with an interval of 12 hours.
(§2) Synthetic beta amyloid 1-42 (BACHEM) was dissolved in DMSO in order to be 250 μm solution and diluted with PBS to […] and aggregated at 37° C. for four days (Passive Avoidance test) or six days (Y maze test).
Aggregated beta amyloid 1-42 was administrated into the mice according to the procedure disclosed in the literature (Lausen & Belknap, J. Pharmacol. Methods, 16 pp 355-357, 1986). […]
The Y-maze test was performed two days after the administration of beta-amyloid. […] Thereafter, the entering order of the mice into the pathway was observed and the entering time was determined when four limbs of the mice were entered within the pathway. To determine the spatial memory, the percentage of spontaneous alteration behavior was calculated by applying the measured alteration frequency to following empirical formula 1 and the frequency of actual alteration behavior was assigned once at the time that the mice had entered the three pathways continuously. […]

[4] = test system: ICR mouse administrated aggregated beta amyloid 1-42; assay: AD acute model experiment - passive avoidance test; type: in vivo
Protocol: as §1, §2
Aggregated beta amyloid 1-42 was administrated into the mice according to the procedure disclosed in the literature (Lausen & Belknap, J. Pharmacol. Methods, 16 pp 355-357, 1986).
[…] beta amyloid 1-42 was administrated into the 2.4 mm depth of bregma region with 50 μl of Hamilton micro-syringe equipped with 26-gauge needle. The behavior tests were divided into Y maze test and PA (passive avoidance) test after the beta amyloid administration. […]
During the first acquisition trial, each mouse was placed in the lighted compartment; as soon as they entered the dark compartment, the door was closed, and they received an electric shock through the grid floor (0.6 Ma, 3 s). […] 24 hours after the training trial, the mice were again placed in the lighted compartment and the time until they re-entered the dark compartment was measured (step-through latency). […]

COCCCc1ccc2oc(-c3ccc(OC)c(OC)c3)cc2c1 [Compound 18b, 2-(3,4-dimethoxy-phenyl)-5-(3-methoxy-propyl)-benzofuran]
inhibitory effect on the aggregation of beta amyloid [1]: most potent inhibitory effect
amount of A 40 in brain (ELISA) [2]: slightly reduced
recovering effect on memory learning capacity damaged by beta-amyloid (Y maze, spontaneous alteration) ([3]; mice, oral, 50, 100 and 200 mg/kg, FIG. 2, FIG. 3): potent recovering effect on memory learning capacity damaged by beta-amyloid in a dose dependent manner
effect on the memory learning capacity (Y maze), best dose group ([3]; treatment group with more than 100 mg/kg, FIG. 3): most excellent effect
recovering effect on memory learning damaged by beta-amyloid (passive avoidance, step-through latency) ([4]; mice, oral, three days, FIG. 4): potent recovering effect
effect on the memory learning capacity (passive avoidance), best dose group ([4]; treatment group with more than 100 mg/kg, FIG. 5): most excellent effect
